In patent US20210338550A1, “ANTIMICROBIAL MIXTURE CONTAINING 4-(3-ETHOXY-4-HYDROXYPHENYL)BUTAN-2-ONE AND CHLORPHENESIN, AND COSMETIC COMPOSITION CONTAINING SAME” (L'OREAL, priority 2017, published 2021):

System: Aspergillus niger ATCC 6275
Experiment: Determination of synergistic antimicrobial activity in MIC (96-well microplate, optical density at 620 nm)
Type: cell-based
Conditions: for microbial growth percentage: 32.5° C., 24 to 48 hours
Excerpt: FIC Index=(MICa with B/MICa)+(MICb with A/MICb)
with: • MICa with B: minimum concentration of product A in the combination A+B which makes it possible to obtain an inhibitory effect. • MICb with A: minimum concentration of product B in the combination A+B which makes it possible to obtain the inhibitory effect. • MICa: minimum inhibitory concentration of product A alone. • MICb: minimum inhibitory concentration of product B alone.
As regards the combinations tested, MICa with b and MICb with a are the respective concentrations of A and of B in the combinations which make it possible to obtain a microbial growth percentage of less than or equal to 25%.
When the FIC index value is less than or equal to 1, it is considered that the combination of test compounds has a synergistic effect.
The microbial strain Aspergillus niger ATCC 6275, and a double-concentration Sabouraud broth liquid culture medium supplemented with polyoxyethylenated (20 OE) sorbitan monopalmitate (Tween 40 from Croda) and Phytagel® BioReagent were used (i.e. a mixture of 5 g of Phytagel+0.6 g Tween 40+60 g of Sabouraud broth).
A 96-well microplate at an incubation temperature of 32.5° C. is used.
The incubation time of the microplate is from 24 to 48 hours aerobically.
A 10% (weight/volume) stock solution was prepared by mixing 1 g of compound in 9 ml of aqueous 1‰ agar solution. Successive dilutions were made with the 1‰ agar solution. • Test of compounds A and B alone
50 μL of each of the daughter solutions obtained containing compound A or B are added to the microplate wells. 100 μL of Sabouraud liquid nutrient broth inoculated with the strain Aspergillus niger and 50 μL of aqueous 1‰ agar solution are also added thereto. • Test of compounds A and B as a mixture
50 μL of each of the daughter solutions obtained containing compound A and 50 μL of each of the daughter solutions obtained containing compound B are added to the microplate wells. 100 μL of Sabouraud liquid nutrient broth inoculated at double concentration with the strain Aspergillus niger are also added thereto.
A positive microbial growth control was also prepared. The positive microbial growth control corresponds to a mixture of 100 μL of aqueous 1‰ agar solution with 100 μL of Sabouraud liquid nutrient broth inoculated at double concentration with the strain Aspergillus niger in the absence of compounds A and B.
An absorbance control was performed in parallel on compounds A and B alone. This control corresponds to 100 μL of double concentration sterile Sabouraud liquid nutrient broth+100 μL of double concentration compound A or B.
In the three cases (absorbance control, growth control and test), the final volume present in each of the microplate wells is 200 μL.
In the two cases (test and control), the inoculum represents the concentration of the strain Aspergillus niger present in the final volume of the wells (200 μL) and is between 2 and 6×10^5 cfu/ml of Aspergillus niger.
The minimum inhibitory concentration (MIC) of each compound A and B alone and in combination was determined in a known manner by means of optical density measurements at a wavelength of 620 nm.

[1] = first concentration giving growth <= 25%

| % MIC of A alone [1] | % MIC of B alone [1] | SMILES | microbial growth percentage (0.0625 weight % A alone (0 B)) | microbial growth percentage (0.125 weight % A alone (0 B)) | microbial growth percentage (0.25 weight % A alone (0 B)) | microbial growth percentage (0.0125 weight % B alone (0 A)) | microbial growth percentage (0.25 weight % B alone (0 A)) | microbial growth percentage (0.5 weight % B alone (0 A)) |
| --- | --- | --- | --- | --- | --- | --- | --- | --- |
| 0.25% |  | CCOc1cc(CCC(C)=O)ccc1O [A, 4-(3-ethoxy-4-hydroxyphenyl)butan-2-one] | 79% | 41% | 5% |  |  |  |
|  | 0.5% | OCC(O)COc1ccc(Cl)cc1 (centres unmarked) [B, 3-(4-chlorophenoxy)-1,2-propanediol] |  |  |  | 71% | 38% | 1% |
